{
  "source": "paper PMC3288053",
  "about": "(PLoS ONE, 2012)",
  "key": {"CHO-K1/GLUT4 cells": {"tested_on": "CHO-K1/GLUT4 cells", "assay": "Quantification of GLUT4 translocation ratio (IN Cell Analyzer 1000)", "assay_type": "cell-based", "experimental": "CHO-K1 cells are transfected with pEGFPN1-GLUT4-myc plasmid using Lipofectamine 2000, and subsequently screened with G418 (800 µg/ml). The CHO-K1/GLUT4 stable cell line is obtained by picking up clones.\nCHO-K1/GLUT4 cells are seeded into 96-well plate. After cells reached 100% confluence, F12 medium is changed to 3T3-L1 medium and incubated for 2 days. 8-hour serum starvation later, cells are stimulated with insulin for 5 minutes, fixed with 3.7% formaldehyde for 15 minutes, and labeled with anti-myc monoclonal antibody and secondary antibody (Alexa Fluor 647 conjuncted anti-mouse antibody). Fluorescence pictures were obtained by IN Cell Analyzer 1000 Instrument (GE Healthcare) with the same exposure time. The basic unit comprises several core components including a Nikon microscope and a high-resolution CCD camera. Membrane-located GLUT4 is represented by the intensity of red fluorescence (Alex fluor 647) and normalized by the intensity of green fluorescence (GLUT4-EGFP), which is assigned to the total GLUT4 [46]."}, "C57/BL6 DIO male mice": {"tested_on": "C57/BL6 DIO male mice", "assay": "Diet-induced obese (DIO) mice model: fasting plasma glucose, OGTT, ITT, tolerability", "assay_type": "in vivo", "experimental": "All animals receive humane care, and the experimental procedures are performed according to the institutional ethical guidelines on animal care. C57/BL6 male mice are obtained from Shanghai SLAC Laboratory Animal Co. Ltd, and maintained under the temperature controlled at 25°C with a 12 h light-dark cycle. Eight-week-old male mice are fed regular chow or high fat diet (HFD, D12492i, from Research Diets Inc.) for 12 weeks. The DIO mice and normal lean mice are grouped randomly, and each group contains 7 mice. […] Individual body weight and fasting plasma glucose are measured weekly. Averaged daily food intake is measured twice a week. At the termination of the study, mice are dissected, and the weight of tissues (liver, kidney, spleen, heart, perirenal fat, and epididymis fat) is determined.\nMale mice treated with compounds for 8 weeks are used for oral glucose tolerance test. After 6 h fasting, plasma glucose levels are measured and glucose (2 g/kg) is loaded. Blood samples are taken from the tail vein at different time points (0, 30, 90, and 120 min). In insulin tolerance tests, after 6 h fasting, plasma glucose levels are measured and insulin (1 U/kg) is administered by IP injection. Blood samples are taken at indicated time points (0, 15, 30, 45, 60, 90, and 120 min). Blood glucose levels are measured by ACCU-CHEK Active blood sugar testmeter (Roche). Statistical evaluation is performed via two-way ANOVA. Significant difference at P<0.05: *, P<0.01: **."}, "PPARγ-LBD": {"molecular_target": "T1, PPARγ-LBD (Homo sapiens, UniProt P37231)", "T1 construct": "pET15b-PPARγ-LBD202–477; His-tag (N); made in house; host or cells: E. coli BL21 (DE3)", "T1 sequence (P37231 230-505)": "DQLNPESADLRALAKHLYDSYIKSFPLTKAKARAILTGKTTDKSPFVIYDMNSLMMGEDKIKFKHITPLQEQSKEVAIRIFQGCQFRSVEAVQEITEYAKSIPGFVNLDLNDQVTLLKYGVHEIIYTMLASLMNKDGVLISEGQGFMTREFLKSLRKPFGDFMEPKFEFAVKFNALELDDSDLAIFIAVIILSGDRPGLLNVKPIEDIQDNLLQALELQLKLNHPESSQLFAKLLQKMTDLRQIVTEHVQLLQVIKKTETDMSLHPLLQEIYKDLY", "assay": "SPR (Biacore) binding assay", "conditions": "1:1 Langmuir fitting", "experimental": "Binding affinities of Rut towards proteins are analyzed using SPR technology based Biacore 3000 instrument (GE Healthcare). In the assay, proteins are immobilized to CM5 chips using a standard amine-coupling procedure (Biacore manual). The proteins to be covalently bound to the chips are diluted in 10 mM sodium acetate buffer (pH4.5) to a final concentration of 0.10 mg/ml. Before experiments, baseline is equilibrated with a continuous flow of running buffer (10 mM HEPES, 150 mM NaCl, 3 mM EDTA, and 0.005% (v/v) surfactant P20, pH7.4) for 2 hours. Subsequently, Rut with a gradient of concentrations is injected to the channels at a flow rate of 20 µL/min for 60 seconds, followed by disassociation for 120 seconds. The 1∶1 Langmuir binding fitting model in BIAevaluation software version 3.1 (Biacore) is used to determine the equilibrium dissociation constants (K Ds) of compounds. […] Different concentrations of PPARγ-LBD or RXRα-LBD are injected to the channel at a flow rate of 20 µL/min for 60 s, followed by disassociation for 120 s."}, "[1]": {"tested_on": "IR (Tyr1146), AKT (Ser473) in CHO-K1 cells", "assay": "Western blot of IR and AKT phosphorylation", "assay_type": "cell-based", "conditions": "insulin 170 nM, 5 minutes, different doses of Rut", "experimental": "(§1) Insulin sensitizing effects of Rut are investigated in CHO-K1 and 3T3-L1 adipocytes. After incubation with compounds in serum-free medium for indicated time, cells are stimulated with insulin (170 nM for CHO-K1 cells and 17 nM for 3T3-L1 adipocytes) for 5 min, and the stimulation is stopped by ice-cold PBS. The effect of Rut on insulin signaling is also investigated in CHO-K1 cells. In the assay, cells are stimulated with Rut (20 µM, 8 h) or insulin (170 nM, 5 min), and then lysed on ice. GLUT4 protein level is studied in the differentiated 3T3-L1 adipocytes (the 10th day after MDI stimulation). After incubation of compounds for 48 h, cells are lysed on ice. The proteins are resolved by SDS-polyacrylamide gel electrophoresis and electro-transferred to polyvinylidene difluoride membranes. The membrane is blocked by 5% skimmed milk and incubated with antibodies. Proteins are visualized by the ECL detecting system."}, "[2]": {"tested_on": "IR (Tyr1146), AKT (Ser473) in 3T3-L1 adipocytes", "assay": "Western blot of IR and AKT phosphorylation", "assay_type": "cell-based", "conditions": "insulin 17 nM, 5 minutes", "experimental": "as §1"}, "epididymis fat tissues": {"tested_on": "epididymis fat tissues", "assay": "Gene and protein expression in epididymis fat tissues of treated DIO mice", "assay_type": "in vivo", "experimental": "Four mice in each group are employed for the determination of gene expression. The total RNA is extracted from epididymis fat tissues (75 mg/mice) with TRIzol reagent, and the cDNA is synthesized using PrimeScript™ RT reagent Kit. Real-time PCR is performed using SYBR Green Real time PCR master mix on DNA Engine Opticon 2 System. The PCR cycle is 94°C for 20 seconds, 60°C for 30 seconds and 72°C for 30 seconds. The primer pairs for the related genes are described in Supplementary Table S2. The epididymis fat is lysed and the supernatant is separated by SDS-PAGE and transferred to polyvinylidene difluoride membranes (Millipore). Membranes are incubated in blocking buffer (BB) containing 5% skimmed milk with 0.5% Tween 20 in Tris-buffered saline and immunoblotted with the related antibodies overnight at 4°C in BB. After incubation, membranes are washed and incubated with horseradish peroxidase-labeled secondary antibodies (Amersham), and then the proteins are detected by SuperSignal West Pico chemiluminescent substrate (Pierce)."}},
  "data": [
    {"compound": "C=CC(C)(C)c1cc2cc3c(cc2oc1=O)O[C@H](C(C)(C)OC(C)=O)C3", "note": "[(+)-Rutamarin]", "values": [
      {"measurement": "EC50", "setting": "CHO-K1/GLUT4 cells; Cricetulus griseus, CHO-K1, cells pre-treated with Rut 8 hours, then insulin (170 nM) 5 minutes, read-out: EC50, enhancement of insulin-induced GLUT4 translocation", "value": 7, "unit": "µM"},
      {"measurement": "basal GLUT4 translocation without insulin induction", "setting": "CHO-K1/GLUT4 cells; Rut 20 µM, 8 h", "value": "induces basal GLUT4 translocation"},
      {"measurement": "effect on pervanadate-stimulated GLUT4 translocation", "setting": "CHO-K1/GLUT4 cells; Rut 20 µM, pervanadate 100 µM", "value": "cannot enhance"},
      {"measurement": "enhancement on insulin-induced GLUT4 translocation compared with compound-2 and pervanadate", "setting": "CHO-K1/GLUT4 cells; insulin 170 nM, C2 10 µM, pervanadate 100 µM, Rut 5, 10, 20 µM", "value": "even stronger"},
      {"measurement": "fasting plasma glucose level", "setting": "C57/BL6 DIO male mice; DIO mice, Rut 2 mg/kg IP, 2 weeks", "value": "efficiently improve"},
      {"measurement": "fasting plasma glucose vs control obese group", "setting": "C57/BL6 DIO male mice; DIO mice, Rut 10 mg/kg IP daily, 8 weeks", "value": "significantly lower"},
      {"measurement": "insulin tolerance test, glucose elimination vs vehicle", "setting": "C57/BL6 DIO male mice; DIO mice, Rut 10 mg/kg, insulin 1 U/kg IP", "value": "eliminate glucose at a faster rate"},
      {"measurement": "plasma glucose after glucose challenge (glucose tolerance test) vs vehicle", "setting": "C57/BL6 DIO male mice; DIO mice, Rut 10 mg/kg, oral glucose 2 g/kg", "value": "much lower"},
      {"measurement": "food consumption vs vehicle-treated mice", "setting": "C57/BL6 DIO male mice; Rut 10 mg/kg IP", "value": "not significantly different"},
      {"measurement": "body weights", "setting": "C57/BL6 DIO male mice; Rut 10 mg/kg IP, same course in vehicle-treated mice", "value": "slightly decrease in the first four weeks"},
      {"measurement": "insulin tolerance test vs vehicle", "setting": "C57/BL6 DIO male mice; lean mice, Rut 10 mg/kg", "value": "no obvious difference"},
      {"measurement": "fasting plasma glucose vs vehicle", "setting": "C57/BL6 DIO male mice; lean mice, Rut 10 mg/kg IP daily, 8 weeks", "value": "no obvious difference"},
      {"measurement": "equilibrium dissociation constant KD / binding to PPARγ-LBD", "setting": "PPARγ-LBD", "value": "no binding"},
      {"measurement": "insulin-induced phosphorylation of IR and AKT", "setting": "[1]", "value": "enhances"},
      {"measurement": "insulin-stimulated phosphorylation levels of IR and AKT", "setting": "[2]", "value": "largely increased"},
      {"measurement": "insulin receptor (IR) phosphorylation in epididymis fat tissues", "setting": "epididymis fat tissues; Rut 2 mg/kg IP, 2 weeks", "value": "efficiently improve"},
      {"measurement": "mRNA levels of PPARγ:RXRα-regulated genes (pepck, GLUT4 and adiponectin)", "setting": "epididymis fat tissues; Rut 10 mg/kg, epididymis fat tissues", "value": "efficiently increase"},
      {"measurement": "GLUT4 expression in epididymis fat tissues", "setting": "epididymis fat tissues; Rut 2 and 10 mg/kg", "value": "increases GLUT4 expression"}
    ]}
  ]
}
